Data as given in patent publication US20250236616A1, “IMMUNOMODULATING AZALIDES” (Zoetis Services LLC, priority 2021, published 2025).

Columns and labels:
IL-6 = test: Whole bovine blood assay, LPS-induced IL-6; type: cell-based; conditions: Bos taurus, fresh whole bovine blood, LPS stimulant; top drug concentration 250 μM
TNF-α = test: Whole bovine blood assay, LPS-induced TNF-α; type: cell-based; conditions: Bos taurus, fresh whole bovine blood, LPS stimulant
How it was run: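 Fresh heparinized bovine whole blood was preincubated with compound 4 h at 37 °C, then stimulated with LPS (final 1 μg/mL) for 18 h at 37 °C. Plasma TNF-α was quantified by MSD U-Plex chemiluminescent immunoassay, normalized to total protein (BCA), and IC50 taken for LPS-induced TNF-α inhibition.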

IL-1β = test: Whole bovine blood assay, LPS-induced IL-1β (inhibition / overstimulation); type: cell-based; conditions: drug concentration giving overstimulation (OS) of LPS-induced IL-1β
How it was run: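 Fresh heparinized bovine whole blood was preincubated with compound at varying concentrations for 4 h at 37 °C, then stimulated with 1 μg/mL LPS for 18 h. Plasma IL-1β was measured by MSD chemiluminescent immunoassay and normalized to total protein. Values cover inhibition and concentration-dependent overstimulation.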

P. multocida 46572 = test: In vivo mouse lung infection challenge model (murine efficacy), survival; parameters: species or system CD-1 female mice; conditions: P. multocida 46572 intranasal challenge; 20 mg/kg subcutaneous; harmonized relative to vehicle (−) and M9 (+) controls
Method: The challenge organism was P. multocida 46572. Target challenge concentration was 5×10^2 CFU/mouse. Isolated colonies from overnight growth (37° C. with 5% CO2) on trypticase soy agar (TSA II) blood plates were transferred to room temperature Brain Heart Infusion Broth (BHIB). The broth culture was incubated 3.5-4 hours to approximately mid-log phase of growth, as measured by forward light scatter at 600 nm (OD600, 0.200). The culture was centrifuged to collect the bacterial pellet. The pellet was re-suspended in BHIB and adjusted to provide an approximate concentration of 2.7 log 10 colony forming units (CFU) in 0.04 mL at the highest concentration. The challenge inoculum concentration was confirmed by serial dilutions of the inoculum for CFU enumeration. On Day −5, CD −1 female mice were received. Mice were given standard rodent diet and water ad libitum. On Day 0, bacterial inoculum (0.04 mL) was administered to each mouse (n=36) intranasally. Compounds of the invention were dosed at 20 mg/kg (0.1 mL) in a buffered (˜pH 5.4) propylene glycol, monothioglycerol and water solution by subcutaneous injection. Animals were observed from Days 1-10. The study was terminated on Day 10. In addition, some treatment groups were sampled at 6, 24, and 48 hours post bacterial challenge for RNA sequence analysis of lung tissue.
The murine efficacy model (P.multocida challenge) was optimized, and the treatment group size was powered to be able to observe statistically significant improvement of survival to expected ranges for immunomodulatory compounds. The experimental design was a randomized complete block design. Mice were individually identified and treatment groups comingled within a cage, with every treatment group equally represented across cages. Mortality was the primary variable. Mortality data was analyzed using a generalized mixed model with fixed effect of treatment and random effect of block. Survival time was also analyzed using the SAS PHREG (survival analysis) procedure to examine whether there were significant differences between treatment groups and the control group. Numerous compounds of the invention and M9 (positive control) were tested in this model at a dose of 20 mg/kg (Table 3). Typical percent survival for no treatment control is in the range of 0-20% based on study to study variation in challenge inoculum and rate of infection. […] Mouse survival for M9 was about 90-100%, further supporting its residual antibacterial properties against the bacterial strain.

[1] = Bos taurus, 18 h, top concentration 250 μM
[2] = Bos taurus, 18 h, dose of 500 μM (footnote ^)

SMILES | IC50 (IL-6) [µM] | IC50 (TNF-α; top drug concentration 250 μM) [µM] | minimal effective concentration (IL-1β; [1]) [µM] | % Survival (P. multocida 46572) [%] | IC50 (TNF-α; dose of 500 μM (footnote ^)) [µM] | minimal effective concentration (IL-1β; [2]) [µM] | minimal effective concentration (IL-1β; top concentration 250 μM) [µM]
CCCNC[C@]1(O)[C@H](C)OC(O[C@H]2[C@H](C)[C@@H](O[C@@H]3O[C@H](C)C[C@H](N(C)S(=O)(=O)c4nccn4C)[C@H]3Oc3ccc(F)cc3)[C@](C)(O)C[C@@H](C)CN[C@H](C)[C@@H](O)[C@](C)(O)[C@@H](CC)OC(=O)[C@@H]2C)C[C@@]1(C)OC (stereo partly drawn) [Example B-107, N-[(2S,3R,4S,6R)-2-[[(2R,3S,4R,5R,8R,10R,11R,12S,13S, 14R)-2-ethyl-3,4,10-trihydroxy-13-[(4R,5S,6S)-5-hydroxy-4-methoxy-4,6-dimethyl-5-(propylaminomethyl)oxan-2-yl]oxy-3,5,8, 10, 12, 14-hexamethyl-15-oxo-1-oxa-6-azacyclopentadec-11-yl]oxy]-3-(4-fluorophenoxy)-6-methyloxan-4-yl]-N, 1-dimethylimidazole-2-sulfonamide] | 9 | 22 | 2 | 82 |  |  | 
CC[C@H]1OC(=O)[C@H](C)[C@@H](O)[C@H](C)[C@@H](O[C@@H]2O[C@H](C)C[C@H](N(C)S(=O)(=O)c3ccccc3)[C@H]2Oc2ccc(OC)c(OC)c2)[C@](C)(O)C[C@@H](C)CN[C@H](C)[C@@H](O)[C@]1(C)O [Example A-8, N-((2S,3R,4S,6R)-3-(3,4-dimethoxyphenoxy)-2-(((2R,3S,4R,5R,8R,10R,11R,12S,13S,14R)-2-ethyl-3,4, 10, 13-tetrahydroxy-3,5,8,10,12,14-hexamethyl-15-oxo-1-oxa-6-azacyclopentadecan-11-yl)oxy)-6-methyltetrahydro-2H-pyran-4-yl)-N-methylbenzenesulfonamide] |  | 40 | 100 | 20 |  |  | 
CCCNC[C@]1(O)[C@H](C)O[C@@H](O[C@H]2[C@H](C)[C@@H](O[C@@H]3O[C@H](C)C[C@H](N(Cc4ccc(OC)cc4)S(=O)(=O)c4ccccc4)[C@H]3O)[C@](C)(O)C[C@@H](C)CN[C@H](C)[C@@H](O)[C@](C)(O)[C@@H](CC)OC(=O)[C@@H]2C)C[C@@]1(C)OC [Example B-148, N-((2S,3R,4S,6R)-2-(((2R,3S,4R,5R,8R,10R,11R,12S,13S,14R)-2-ethyl-3,4,10-trihydroxy-13-(((2R,4R,5S,6S)-5-hydroxy-4-methoxy-4,6-dimethyl-5-((propylamino)methyl)tetrahydro-2H-pyran-2-yl)oxy)-3,5,8,10, 12, 14-hexamethyl-15-oxo-1-oxa-6-azacyclopentadecan-11-yl)oxy)-3-hydroxy-6-methyltetrahydro-2H-pyran-4-yl)-N-(4-methoxybenzyl)benzenesulfonamide] | 4 | 2 | 2 | 68 |  |  | 
CCCNC[C@]1(O)[C@H](C)O[C@@H](O[C@H]2[C@H](C)[C@@H](O[C@@H]3O[C@H](C)C[C@H](N(C)S(=O)(=O)Nc4ccccc4)[C@H]3O)[C@](C)(O)C[C@@H](C)CN[C@H](C)[C@@H](O)[C@](C)(O)[C@@H](CC)OC(=O)[C@@H]2C)C[C@@]1(C)OC [Example B-48, (2R,3S,4R,5R,8R,10R,11R,12S,13S, 14R)-2-ethyl-3,4,10-trihydroxy-13-[(2R,4R,5S,6S)-5-hydroxy-4-methoxy-4,6-dimethyl-5-(propylaminomethyl)oxan-2-yl]oxy-11-[(2S,3R,4S,6R)-3-hydroxy-6-methyl-4-[methyl(phenylsulfamoyl)amino]oxan-2-yl]oxy-3,5,8,10,12,14-hexamethyl-15-oxo-1-oxa-6-azacyclopentadecane] |  |  |  | 33 | 25 | 32 | 
CCCNC[C@]1(O)[C@H](C)O[C@@H](O[C@H]2[C@H](C)[C@@H](O[C@@H]3O[C@H](C)C[C@H](N(C)S(=O)(=O)N(C)Cc4ccc(Cl)cc4)[C@H]3O)[C@](C)(O)C[C@@H](C)CN[C@H](C)[C@@H](O)[C@](C)(O)[C@@H](CC)OC(=O)[C@@H]2C)C[C@@]1(C)OC [Example B-41] |  |  |  | 52 |  |  | 6
CCCNC[C@]1(O)[C@H](C)O[C@@H](O[C@H]2[C@H](C)[C@@H](O[C@@H]3O[C@H](C)C[C@H](N(C)S(=O)(=O)c4ccc(C(F)(F)F)cc4)[C@H]3O)[C@](C)(O)C[C@@H](C)CN[C@H](C)[C@@H](O)[C@](C)(O)[C@@H](CC)OC(=O)[C@@H]2C)C[C@@]1(C)OC [Example B-14, N-((2S,3R,4S,6R)-2-(((2R,3S,4R,5R,8R,10R,11R,12S,13S,14R)-2-ethyl-3,4,10-trihydroxy-13-(((2R,4R,5S,6S)-5-hydroxy-4-methoxy-4,6-dimethyl-5-((propylamino)methyl)tetrahydro-2H-pyran-2-yl)oxy)-3,5,8,10,12,14-hexamethyl-15-oxo-1-oxa-6-azacyclopentadecan-11-yl)oxy)-3-hydroxy-6-methyltetrahydro-2H-pyran-4-yl)-N-methyl-4-(trifluoromethyl)benzenesulfonamide] |  |  |  | 16 |  |  | 
CCCNC[C@]1(O)[C@H](C)O[C@@H](O[C@H]2[C@H](C)[C@@H](O[C@@H]3O[C@H](C)C[C@H](N(C)S(=O)(=O)c4ccc(Cl)cc4)[C@H]3O)[C@](C)(O)C[C@@H](C)CN[C@H](C)[C@@H](O)[C@](C)(O)[C@@H](CC)OC(=O)[C@@H]2C)C[C@@]1(C)OC [Example B-60, 4-chloro-N-((2S,3R,4S,6R)-2-(((2R,3S,4R,5R,8R,10R,11R, 12S,13S, 14R)-2-ethyl-3,4,10-trihydroxy-13-(((2R,4R,5S,6S)-5-hydroxy-4-methoxy-4,6-dimethyl-5-((propylamino)methyl)tetrahydro-2H-pyran-2-yl)oxy)-3,5,8, 10, 12, 14-hexamethyl-15-oxo-1-oxa-6-azacyclopentadecan-11-yl)oxy)-3-hydroxy-6-methyltetrahydro-2H-pyran-4-yl)-N-methylbenzenesulfonamide] |  |  |  | 37 | 5 | 13 | 
CCCNC[C@]1(O)[C@H](C)O[C@@H](O[C@H]2[C@H](C)[C@@H](O[C@@H]3O[C@H](C)C[C@H](N(C)S(=O)(=O)N(C)c4ccc(C(F)(F)F)cc4)[C@H]3O)[C@](C)(O)C[C@@H](C)CN[C@H](C)[C@@H](O)[C@](C)(O)[C@@H](CC)OC(=O)[C@@H]2C)C[C@@]1(C)OC [Example B-113, (2R,3S,4R,5R,8R,10R,11R,12S,13S,14R)-2-ethyl-3,4, 10-trihydroxy-13-[(2R,4R,5S,6S)-5-hydroxy-4-methoxy-4,6-dimethyl-5-(propylaminomethyl)oxan-2-yl]oxy-11-[(2S,3R,4S,6R)-3-hydroxy-6-methyl-4-[methyl-[methyl-[4-(trifluoromethyl)phenyl]sulfamoyl]amino]oxan-2-yl]oxy-3,5,8, 10, 12, 14-hexamethyl-1-oxa-6-azacyclopentadecan-15-one] |  | 7 |  | 59 |  |  | 
CCCNC[C@@]1(O)[C@@H](C)OC(O[C@H]2[C@H](C)[C@@H](O[C@@H]3O[C@H](C)C[C@H](N(C)S(=O)(=O)c4ccccc4)[C@H]3Oc3ccccn3)[C@](C)(O)C[C@@H](C)CN[C@H](C)[C@@H](O)[C@](C)(O)[C@@H](CC)OC(=O)[C@@H]2C)C[C@]1(C)OC (stereo partly drawn) [Example B-130] |  |  |  | 42 |  |  | 6
